Key:
[1] = tested on: JAK-STAT signalling in HeLa cells; assay: JAK-STAT signalling assay (OSM-triggered pSTAT1(2)-luciferase reporter in HeLa cells); format: cell-based; conditions: Homo sapiens, human OSM 33 ng/mL, STAT1 luciferase reporter
Experimental: HeLa cells were maintained in Dulbecco's Modified Eagle's Medium (DMEM) containing 10% heat inactivated fetal calf serum, 100 U/mL penicillin and 100 μg/mL streptomycin. HeLa cells were used at 70% confluence for transfection. 20,000 cells in 87 μL cell culture medium were transiently transfected with 40 ng pSTAT1(2)-luciferase reporter (Panomics), 8 ng of LacZ reporter as internal control reporter and 52 ng of pBSK using 0.32 μL Jet-PEI (Polyplus) as transfection reagent per well in 96-well plate format. After overnight incubation at 37° C., 10% CO2, transfection medium was removed.
40 μL of cell lysate was used to read β-galactosidase activity by adding 180 μL β-Gal solution (30 μL ONPG 4 mg/mL+150 μL β-Galactosidase buffer (0.06 M Na2HPO4, 0.04 M NaH2PO4, 1 mM MgCl2)) for 20 min.
The positive and negative controls were used to calculate z′ and ‘percent inhibition’ (PIN) values.
PIN values were plotted for compounds tested in dose-response and EC50 values were derived.

[2] = Microsomal stability, rat liver microsomes; format: in vitro ADME; conditions: 3 μM compound
Experimental: (§1) A 10 mM stock solution of compound in DMSO was diluted 1000 fold in a 182 mM phosphate buffer pH7.4 in a 96 deep well plate (Greiner, Cat no. 780285) and pre-incubated at 37° C.
(§2) 40 μL of deionised water was added to a well of a polypropylene Matrix 2D barcode labelled storage tube (Thermo Scientific) and pre-incubated at 37° C.
(§3) A Glucose-6-phophate-dehydrogenase (G6PDH) working stock solution was prepared in 182 mM phosphate buffer pH7.4 and placed on ice before use. A co-factor containing MgCl2, glucose-6-phosphate and NADP+ was prepared in deionised water and placed on ice before use.
(§4) A final working solution containing liver microsomes (Xenotech) of a species of interest (human, mouse, rat, dog), previously described G6PDH and co-factors was prepared and this mix was incubated for no longer than 20 minutes at room temperature.
(§5) 30 μL of the pre-heated compound dilution was added to 40 μL of pre-heated water in the Matrix tubes and 30 μL of the microsomal mix was added. Final reaction concentrations were 3 μM compound, 1 mg microsomes, 0.4 U/mL GDPDH, 3.3 mM MgCl2, 3.3 mM glucose-6-phosphate and 1.3 mM NADP+.
(§6) To measure percentage remaining of compound at time zero MeOH or ACN was added (1:1) to the well before adding the microsomal mix. The plates were sealed with Matrix Sepra Seals™ (Matrix, Cat. No. 4464) and shaken for a few seconds ensure complete mixing of all components.
(§7) The samples which were not stopped are incubated at 37° C., 300 rpm and after 1 hr of incubation the reaction was stopped with MeOH or ACN (1:1).
(§8) After stopping the reaction the samples were mixed and placed on ice for 30 min to precipitate the proteins. The plates were then centrifuged 30 min at 1200 rcf at 4° C. and the supernatant was transferred to a 96 v-bottom PP plate (Greiner, 651201) for analysis on LCMS.
(§9) These plates were sealed with sealing mats (MA96RD-04S) of www.kinesis.co.uk and samples were measured at room temperature on LCMS (ZQ 1525 from Waters) under optimized conditions using Quanoptimize to determine the appropriate mass of the parent molecule.
(§10) The samples were analyzed on LCMS with a flow rate of 1 mL/min. Solvent A was 15 mM ammonia and solvent B was methanol or acetonitrile, depending on the stop solution used. The samples were run under positive ion spray on an XBridge C18 […] (2.1×30 mm) column, from Waters.
(§11) Peak area from the parent compound at time 0 was considered to be 100% remaining. The percentage remaining after 1 hr incubation was calculated from time 0 and was calculated as the percentage remaining. The solubility of the compound in the final test concentration in buffer is inspected by microscope and results are reported.
(§12) The data on microsomal stability are expressed as a percentage of the total amount of compound remaining after 60 min.

[3] = Microsomal stability, human liver microsomes; format: in vitro ADME; conditions: 3 μM compound
Experimental: as §1, §2, §3, §4, §5, §6, §7, §8, §9, §10, §11, §12

[4] = Pharmacokinetic study in rodents (Sprague-Dawley rats); format: in vivo; conditions: male, plasma; Sprague-Dawley rat, IV 1 mg/kg
Experimental: Sprague-Dawley rats (male, 5-6 weeks old) were obtained from Janvier (France). Rats were acclimatized for at least 7 days before treatment and were kept on a 12 hr light/dark cycle (0700-1900). Temperature was maintained at approximately 22° C., and food and water were provided ad libitum. […] After the surgery, rats were housed individually. Rats were deprived of food for at least 16 hours before oral dosing and 6 hours after. Water was provided ad libitum.
Test compounds were orally dosed as a single esophageal gavage at 5 mg/kg under a dosing volume of 5 ml/kg and intravenously dosed as a bolus via the caudal vein at 1 mg/kg under a dosing volume of 5 mL/kg. Each group consisted of 3 rats. […] For compound 11, blood samples were collected at the retro-orbital sinus with lithium heparin as anti-coagulant at the following time points 0.25, 1, 3 and 6 hrs (oral route). Whole blood samples were centrifuged at 5000 rpm for 10 min and the resulting plasma samples were stored at −20° C. pending analysis.
Plasma concentrations of each test compound were determined by an LC-MS/MS method in which the mass spectrometer was operated in positive electrospray mode.
Pharmacokinetic parameters were calculated using Winnonlin® (Pharsight®, United States).

[5] = tested on: MMP13 levels in human chondrosarcoma cell line SW1353; assay: cells; conditions: SW1353, 48 h
Experimental: The cells were seeded in 96 well plates at 15,000 cells/well in a volume of 120 μL DMEM (Invitrogen) containing 10% (v/v) FBS and 1% penicillin/streptomycin (InVitrogen) incubated at 37° C. 5% CO2. Cells were preincubated with 15 μL of compound in M199 medium with 2% DMSO 1 hr before triggering with 15 μL OSM and IL-1β to reach 25 ng/mL OSM and 1 ng/mL IL-1β, and MMP13 levels were measured in conditioned medium 48 hours after triggering. MMP13 activity was measured using an antibody capture activity assay. For this purpose, 384 well plates (NUNC, 460518, MaxiSorb black) were coated with 35 μL of a 1.5 μg/mL anti-human MMP13 antibody (R&D Systems, MAB511) solution for 24 hrs at 4° C. After washing the wells 2 times with PBS+0.05% Tween, the remaining binding sites were blocked with 100 μL 5% non-fat dry milk (Santa Cruz, sc-2325, Blotto) in PBS for 24 hr at 4° C. […] After incubation for 24 hrs at 37° C. fluorescence of the converted substrate was measured in a Perkin Elmer Wallac EnVision 2102 Multilabel Reader (wavelength excitation: 320 nm, wavelength emission: 405 nm). Percentage inhibition=((fluorescence determined in the presence of vehicle−fluorescence determined for sample with test compound present) divided by (fluorescence determined in the presence of vehicle−fluorescence determined for sample without trigger))*100.

rat CIA model = assay: Rat collagen induced arthritis (CIA) model; format: in vivo; set-up: key to Clinical Assessment End point score / Clinical Assessment AUC Score / Paw swelling / Larsen' Score: a “*” indicates that there was a statistically significant improvement in the score, p 0.05 vs. untreated control; conditions: for Clinical Assessment AUC Score / Clinical Assessment End point score: normalized score
Experimental: Dark Agouti rats (male, 7-8 weeks old) were obtained from Harlan Laboratories (Maison-Alfort, France). Rats were kept on a 12 hr light/dark cycle (0700-1900). Temperature was maintained at 22° C., and food and water were provided ad libitum.
One day before the experiment, CII solution (2 mg/mL) was prepared with 0.05 M acetic acid and stored at 4° C. Just before the immunization, equal volumes of adjuvant (IFA) and CII were mixed by a homogenizer in a pre-cooled glass bottle in an ice water bath. Extra adjuvant and prolonged homogenization may be required if an emulsion is not formed. 0.2 mL of the emulsion was injected intradermally at the base of the tail of each rat on day 1, a second booster intradermal injection (CII solution at 2 mg/mL in CFA 0.1 mL saline) was performed on day 9. This immunization method was modified from published methods (Sims et al, 2004; Jou et al., 2005).
The therapeutic effects of the compounds were tested in the rat CIA model. Rats were randomly divided into equal groups and each group contained 10 rats. All rats were immunized on day 1 and boosted on day 9. Therapeutic dosing lasted from day 16 to day 30. The negative control group was treated with vehicle (MC 0.5%) and the positive control group with Enbrcl (10 mg/kg, 3× week., s.c.). A compound of interest was typically tested at 3 doses, e.g. 3, 10, 30 mg/kg, p.o.
Arthritis is scored according to the method of Khachigian 2006, Lin et al 2007 and Nishida et al. 2004). The swelling of each of the four paws is ranked with the arthritic score as follows: 0-no symptoms; 1-mild, but definite redness and swelling of one type of joint such as the ankle or wrist, or apparent redness and swelling limited to individual digits, regardless of the number of affected digits; 2-moderate redness and swelling of two or more types of joints; 3-severe redness and swelling of the entire paw including digits; 4-maximally inflamed limb with involvement of multiple joints (maximum cumulative clinical arthritis score 16 per animal) (Nishida et al., 2004).
To permit the meta-analysis of multiple studies the clinical score values were normalised as follows:
AUC of clinical score (AUC score): The area under the curve (AUC) from day 1 to day 14 was calculated for each individual rat. The AUC of each animal was divided by the average AUC obtained for the vehicle in the study from which the data on that animal was obtained and multiplied by 100 (i.e. the AUC was expressed as a percentage of the average vehicle AUC per study).
Clinical score increase from day 1 to day 14 (End point score): The clinical score difference for each animal was divided by the average clinical score difference obtained for the vehicle in the study from which the data on that animal was obtained and multiplied by 100 (i.e. the difference was expressed as a percentage of the average clinical score difference for the vehicle per study).
X-ray photos were taken of the hind paws of each individual animal. A random blind identity number was assigned to each of the photos, and the severity of bone erosion was ranked by two independent scorers with the radiological Larsen's score system as follows: 0—normal with intact bony outlines and normal joint space; 1—slight abnormality with any one or two of the exterior metatarsal bones showing slight bone erosion; 2—definite early abnormality with any three to five of the exterior metatarsal bones showing bone erosion; 3—medium destructive abnormality with all the exterior metatarsal bones as well as any one or two of the interior metatarsal bones showing definite bone erosions; 4—severe destructive abnormality with all the metatarsal bones showing definite bone erosion and at least one of the inner metatarsal joints completely eroded leaving some bony joint outlines partly preserved; 5—mutilating abnormality without bony outlines. This scoring system is a modification from Salvemini et al., 2001; Bush et al., 2002; Sims et al., 2004; Jou et al., 2005.

[6] = tested on: Circulating TNF alpha levels; assay: Septic shock model (LPS-induced TNF alpha release); format: in vivo, mouse; conditions: BALB/cJ mice, 30 mg/kg po, LPS 15 μg/kg ip
Experimental: Injection of lipopolysaccharide (LPS) induces a rapid release of soluble tumour necrosis factor (TNF-alpha) into the periphery. This model was used to analyse prospective blockers of TNF release in vivo. Six BALB/cJ female mice (20 g) per group were treated at the intended dosing once, po. Thirty minutes later, LPS (15 μg/kg; E. coli serotype 0111:B4) was injected ip. Ninety minutes later, mice were euthanized and blood was collected. Circulating TNF alpha levels were determined using commercially available ELISA kits. Dexamethasone ([…]) was used as a reference anti-inflammatory compound. Selected compounds were tested at one or multiple doses, e.g. 3 and/or 10 and/or 30 mg/kg, po.

## O=C(Nc1nc2cccc(-c3ccc(CN4CCC(F)(F)CC4)cc3)n2n1)C1CC1 [Compound 11, Cyclopropanecarboxylic acid {5-[4-(4,4-difluoro-piperidin-1-ylmethyl)-phenyl]-[1,2,4]triazolo[1,5-a]pyridin-2-yl}-amide]
[1]
  EC50: 0.74 µM
[2]
  microsomal stability, percentage of compound remaining after 60 min, Rat: 26%
[3]
  microsomal stability, percentage of compound remaining after 60 min, Human: 51%

## O=C(Nc1nc2cccc(-c3ccc(CN4CCS(=O)(=O)CC4)cc3)n2n1)C1CC1 [Compound 1, Cyclopropanecarboxylic acid {5-[4-(1,1-dioxo-1-thiomorpholin-4-ylmethyl)-phenyl]-[1,2,4]triazolo[1,5-a]pyridin-2-yl}-amide]
[4]
  C0: 1410 ng/mL
[5]
  EC50: 2.24 µM
Rat CIA model; 0.1 mg/kg/day p.o.
  Clinical Assessment AUC Score: *
  Clinical Assessment End point score: *
Rat CIA model; 0.3 mg/kg/day p.o.
  Paw swelling: *
  Clinical Assessment AUC Score: *
  Clinical Assessment End point score: *
Rat CIA model; 1 mg/kg/day p.o.
  Paw swelling: *
  Clinical Assessment AUC Score: *
  Clinical Assessment End point score: *
Rat CIA model; 3 mg/kg/day p.o.
  Larsen' Score: *
  Paw swelling: *
  Clinical Assessment AUC Score: *
  Clinical Assessment End point score: *
Rat CIA model; dose of 0.1 mg/kg
  normalized clinical score values (calculated as AUC or as the difference from day 1 to day 14): statistically significant improvements
Rat CIA model; dose of 0.3 mg/kg
  paw swelling readout: statistically significant increase
Rat CIA model; dose of 3 mg/kg
  Larsen score: statistically significant increase
Rat CIA model; oral doses compared
  improvement in efficacy over Compound 2 when the oral doses are compared: 100 fold
[2]
  microsomal stability, percentage of compound remaining after 60 min, Rat: 65.6%
[3]
  microsomal stability, percentage of compound remaining after 60 min, Human: 87.2%
[6]
  activity in septic shock model (blocking of TNF release): active

## O=C(Nc1nc2cccc(-c3ccc(CN4CCOCC4)cc3)n2n1)C1CC1 [Compound 2, N-(5-(4-(morpholinomethyl)phenyl)-[1,2,4]triazolo[1,5-a]pyridin-2-yl)cyclopropanecarboxamide]
[4]
  C0: 863 ng/mL
Rat CIA model; dose of 10 mg/kg
  normalized clinical score values (on day 14): statistically significant improvements
Rat CIA model; dose of 30 mg/kg
  Larsen score: statistically significant increase
  paw swelling readout: statistically significant increase
[2]
  microsomal stability, percentage of compound remaining after 60 min, Rat: 38%
[3]
  microsomal stability, percentage of compound remaining after 60 min, Human: 73%

## O=C(Nc1nc2cccc(-c3ccc(C(=O)N4CCS(=O)(=O)CC4)cc3)n2n1)C1CC1 [Compound 10, Cyclopropanecarboxylic acid {5-[4-(1,1-dioxo-1-thiomorpholine-4-carbonyl)-phenyl]-[1,2,4]triazolo[1,5-a]yridin-2-yl}-amide]
[2]
  microsomal stability, percentage of compound remaining after 60 min, Rat: 89%
[3]
  microsomal stability, percentage of compound remaining after 60 min, Human: 102%
